# Measured values from patent publication US8975398B2, “NAMPT inhibitors” (AbbVie Inc., priority 2012, dated 2015).
# Tested on: PC3 cells
# Assay: NAMPT Cell Proliferation Assay (Cell Titer Glo; also performed in the presence of 0.3 mM nicotinamide mononucleotide)
# Assay type: cell-based
# Conditions: 5 days incubation, cell viability by Cell Titer Glo
# Method in brief: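 Seed PC3 at 500 cells/well (RPMI, 10% HI-FBS), attach overnight; add compound, 10-fold series 10 μM → 1×10^−5 μM; incubate 5 d, 37° C/5% CO2; luminescent viability readout; fit % inhibition sigmoidally for IC50.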
"IC50 (Homo sapiens, PC-3, 120 h)",IC50,SMILES
3.23 nM,,"CC(C)CC(=O)N1CCC(Cc2ccc(NC(=O)C3CN(c4cccnn4)C3)cc2)CC1 [Example 966, N-(4-{[1-(3-methylbutanoyl)piperidin-4-yl]methyl}phenyl)-1-(pyridazin-3-yl)azetidine-3-carboxamide]"
28.5 nM,,"CC(C)(C)CC(=O)N1CCC(n2cc(NC(=O)C3CN(c4cccnn4)C3)cn2)CC1 [Example 970, N-{1-[1-(3,3-dimethylbutanoyl)piperidin-4-yl]-1H-pyrazol-4-yl}-1-(pyridazin-3-yl)azetidine-3-carboxamide]"
6.51 nM,,"Nc1ncccc1C(=O)N1CCC(c2ccc(NC(=O)C3CN(c4cccnn4)C3)cc2)CC1 [Example 910, N-(4-{1-[(2-aminopyridin-3-yl)carbonyl]piperidin-4-yl}phenyl)-1-(pyridazin-3-yl)azetidine-3-carboxamide]"
6.43 nM,,"CC(C)(C)CC(=O)N1CCC(c2ccc(NC(=O)C3CN(c4cccnn4)C3)cc2F)CC1 [Example 882, N-{4-[1-(3,3-dimethylbutanoyl)piperidin-4-yl]-3-fluorophenyl}-1-(pyridazin-3-yl)azetidine-3-carboxamide]"
1.56 nM,,"CC(C)(C)C(=O)N1CCC(Cc2ccc(NC(=O)C3CN(c4cccnn4)C3)cc2)CC1 [Example 897, N-(4-{[1-(2,2-dimethylpropanoyl)piperidin-4-yl]methyl}phenyl)-1-(pyridazin-3-yl)azetidine-3-carboxamide]"
2.7 nM,,"CCC(C)(C)C(=O)N1CCC(Cc2ccc(NC(=O)C3CN(c4cccnn4)C3)cc2)CC1 [Example 930, N-(4-{[1-(2,2-dimethylbutanoyl)piperidin-4-yl]methyl}phenyl)-1-(pyridazin-3-yl)azetidine-3-carboxamide]"
4.09 nM,,"CC(C)(C)C(=O)N1CCC(O)(c2ccc(NC(=O)C3CN(c4cccnn4)C3)cc2)CC1 [Example 890, N-{4-[1-(2,2-dimethylpropanoyl)-4-hydroxypiperidin-4-yl]phenyl}-1-(pyridazin-3-yl)azetidine-3-carboxamide]"
0.347 nM,,"Cc1ccnnc1N1CC(C(=O)Nc2ccc(C3CCN(C(=O)CC(C)(C)C)CC3)cc2)C1 [Example 969, N-{4-[1-(3,3-dimethylbutanoyl)piperidin-4-yl]phenyl}-1-(4-methylpyridazin-3-yl)azetidine-3-carboxamide]"
2.75 nM,,"O=C(Nc1ccc(C2CCN(C(=O)c3ccccc3)CC2)c(F)c1)C1CN(c2cccnn2)C1 [Example 884, N-[4-(1-benzoylpiperidin-4-yl)-3-fluorophenyl]-1-(pyridazin-3-yl)azetidine-3-carboxamide]"
2.62 nM,,"O=C(Nc1ccc(CC2CCN(C(=O)c3cscn3)CC2)cc1)C1CN(c2cccnn2)C1 [Example 937, 1-(pyridazin-3-yl)-N-(4-{[1-(1,3-thiazol-4-ylcarbonyl)piperidin-4-yl]methyl}phenyl)azetidine-3-carboxamide]"
7.66 nM,,"CC(C)(C)C(=O)N1CCC(c2ccc(NC(=O)C3CN(c4cccnn4)C3)cc2F)CC1 [Example 886, N-{4-[1-(2,2-dimethylpropanoyl)piperidin-4-yl]-3-fluorophenyl}-1-(pyridazin-3-yl)azetidine-3-carboxamide]"
5.43 nM,,"CC(C)(C)CC(=O)N1CCC(c2ccc(NC(=O)C3CN(c4cccnn4)C3)cn2)CC1 [Example 920, N-{6-[1-(3,3-dimethylbutanoyl)piperidin-4-yl]pyridin-3-yl}-1-(pyridazin-3-yl)azetidine-3-carboxamide]"

# Second part, the molecule before the results:
SMILES,"IC50 (Homo sapiens, PC-3, 120 h)",IC50
"O=C(Nc1ccccc1F)c1ccc(NC(=O)C2CN(c3cccnn3)C2)cc1 [Example 1010, N-{4-[(2-fluorophenyl)carbamoyl]phenyl}-1-(pyridazin-3-yl)azetidine-3-carboxamide]",70.9 nM,
Cc1ccccc1C(=O)N1CC(c2ccc(NC(=O)[C@H]3CCN(c4cccnn4)C3)cc2)C1 [Example 791],,7.48 nM
"Cc1ccc(N2CC(C(=O)Nc3ccc(-c4cnn(CC5(C)CCOCC5)c4)cc3)C2)nn1 [Example 891, 1-(6-methylpyridazin-3-yl)-N-(4-{1-[(4-methyltetrahydro-2H-pyran-4-yl)methyl]-1H-pyrazol-4-yl}phenyl)azetidine-3-carboxamide]",65.6 nM,
"Cc1ccccc1C(=O)N1CCC(Cc2ccc(NC(=O)C3CN(c4cccnn4)C3)cc2)CC1 [Example 963, N-(4-{[1-(2-methylbenzoyl)piperidin-4-yl]methyl}phenyl)-1-(pyridazin-3-yl)azetidine-3-carboxamide]",2.14 nM,
"O=C(Nc1ccc(C2CCN(C(=O)c3ccccc3F)CC2)c(F)c1)C1CN(c2cccnn2)C1 [Example 885, N-{3-fluoro-4-[1-(2-fluorobenzoyl)piperidin-4-yl]phenyl}-1-(pyridazin-3-yl)azetidine-3-carboxamide]",1.63 nM,
"CCCCNC(=O)c1ccc(NC(=O)C2CN(c3cccnn3)C2)cc1 [Example 979, N-[4-(butylcarbamoyl)phenyl]-1-(pyridazin-3-yl)azetidine-3-carboxamide]",72 nM,
"Cc1ccc(N2CC(C(=O)Nc3ccc(O[C@@H]4CCN(C(=O)CC(C)C)C4)cc3)C2)nn1 [Example 915, N-(4-{[(3R)-1-(3-methylbutanoyl)pyrrolidin-3-yl]oxy}phenyl)-1-(6-methylpyridazin-3-yl)azetidine-3-carboxamide]",139 nM,
"COCCNC(=O)c1ccc(NC(=O)C2CN(c3cccnn3)C2)cc1 [Example 1023, N-{4-[(2-methoxyethyl)carbamoyl]phenyl}-1-(pyridazin-3-yl)azetidine-3-carboxamide]",508 nM,
"CC1(CNC(=O)c2ccc(NC(=O)C3CN(c4cccnn4)C3)cc2)COC1 [Example 999, N-(4-{[(3-methyloxetan-3-yl)methyl]carbamoyl}phenyl)-1-(pyridazin-3-yl)azetidine-3-carboxamide]",250 nM,
"CCOC(=O)c1cc(-c2ccc(NC(=O)C3CN(c4cccnn4)C3)cc2)n(C)n1 [Example 912, ethyl 1-methyl-5-[4-({[1-(pyridazin-3-yl)azetidin-3-yl]carbonyl}amino)phenyl]-1H-pyrazole-3-carboxylate]",64.2 nM,
"O=C(NCC1CCOCC1)c1ccc(NC(=O)C2CN(c3cccnn3)C2)cc1 [Example 1001, 1-(pyridazin-3-yl)-N-{4-[(tetrahydro-2H-pyran-4-ylmethyl)carbamoyl]phenyl}azetidine-3-carboxamide]",53.2 nM,
"O=C(NC1CC1)c1ccc(NC(=O)C2CN(c3cccnn3)C2)cc1 [Example 1004, N-[4-(cyclopropylcarbamoyl)phenyl]-1-(pyridazin-3-yl)azetidine-3-carboxamide]",7920 nM,
"O=C(NC[C@H]1CCCO1)c1ccc(NC(=O)C2CN(c3cccnn3)C2)cc1 [Example 996, 1-(pyridazin-3-yl)-N-(4-{[(2R)-tetrahydrofuran-2-ylmethyl]carbamoyl}phenyl)azetidine-3-carboxamide]",104 nM,
"CC(C)(C)C(=O)N1CCC(c2ccc(C(=O)N[C@H]3CCN(c4cccnn4)C3)s2)CC1 [Example 1013, 5-[1-(2,2-dimethylpropanoyl)piperidin-4-yl]-N-[(3S)-1-(pyridazin-3-yl)pyrrolidin-3-yl]thiophene-2-carboxamide]",213 nM,
"O=C(NC1CCCC1)c1ccc(NC(=O)C2CN(c3cccnn3)C2)cc1 [Example 1005, N-[4-(cyclopentylcarbamoyl)phenyl]-1-(pyridazin-3-yl)azetidine-3-carboxamide]",592 nM,
"O=C(NCC1CC1)c1ccc(NC(=O)C2CN(c3cccnn3)C2)cc1 [Example 995, N-{4-[(cyclopropylmethyl)carbamoyl]phenyl}-1-(pyridazin-3-yl)azetidine-3-carboxamide]",245 nM,
"O=C(Nc1ccc(C2(O)CCN(C(=O)c3ccccc3F)CC2)cc1)C1CN(c2cccnn2)C1 [Example 889, N-{4-[1-(2-fluorobenzoyl)-4-hydroxypiperidin-4-yl]phenyl}-1-(pyridazin-3-yl)azetidine-3-carboxamide]",2.85 nM,
"Cc1ccc(N2CC(C(=O)Nc3ccc(-c4cnn(CC(C)(C)C)c4)cc3)C2)nn1 [Example 878, N-{4-[1-(2,2-dimethylpropyl)-1H-pyrazol-4-yl]phenyl}-1-(6-methylpyridazin-3-yl)azetidine-3-carboxamide]",70.6 nM,
"Cc1ccc(N2CC(C(=O)Nc3ccc(O[C@@H]4CCN(C(=O)c5cscn5)C4)cc3)C2)nn1 [Example 918, 1-(6-methylpyridazin-3-yl)-N-(4-{[(3R)-1-(1,3-thiazol-4-ylcarbonyl)pyrrolidin-3-yl]oxy}phenyl)azetidine-3-carboxamide]",717 nM,
"CC1(Cn2cc(-c3ccc(NC(=O)C4CN(c5cccnn5)C4)cn3)cn2)CCNCC1 [Example 926, N-(6-{1-[(4-methylpiperidin-4-yl)methyl]-1H-pyrazol-4-yl}pyridin-3-yl)-1-(pyridazin-3-yl)azetidine-3-carboxamide]",602 nM,
"Cc1ccnnc1N1CC[C@H](C(=O)Nc2ccc(C3CCN(C(=O)C(C)(C)C)CC3)cc2)C1 [Example 922, (3S)—N-{4-[1-(2,2-dimethylpropanoyl)piperidin-4-yl]phenyl}-1-(4-methylpyridazin-3-yl)pyrrolidine-3-carboxamide]",3.38 nM,
"CC1(C(=O)N2CCC(c3ccc(C(=O)N[C@H]4CCN(c5cccnn5)C4)s3)CC2)CC1 [Example 1016, 5-{1-[(1-methylcyclopropyl)carbonyl]piperidin-4-yl}-N-[(3S)-1-(pyridazin-3-yl)pyrrolidin-3-yl]thiophene-2-carboxamide]",212 nM,
"O=C(N[C@@H]1CCOC1)c1ccc(NC(=O)C2CN(c3cccnn3)C2)cc1 [Example 1022, 1-(pyridazin-3-yl)-N-{4-[(3R)-tetrahydrofuran-3-ylcarbamoyl]phenyl}azetidine-3-carboxamide]",8160 nM,
"Cc1nnccc1N1CC(C(=O)Nc2ccc(C3CCN(C(=O)c4ccccc4F)CC3)cc2)C1 [Example 909, N-{4-[1-(2-fluorobenzoyl)piperidin-4-yl]phenyl}-1-(3-methylpyridazin-4-yl)azetidine-3-carboxamide]",67 nM,
